Key:
Assay type in all cases: biochemical, Medicago truncatula
[1] = system: T1, MtHCT2; experiment: HPLC product assay, reverse HCT reaction; details: 500 µM CoA, 100 mM sodium phosphate pH 7.5, 500 µM DTT; kcat apparent; substrate tested 20 to 400 µM
T1 construct: gene HCT2
Source text: HPLC product assay, reverse HCT reaction on MtHCT2

[2] = system: T2, MtHCT1; experiment: HPLC product assay, reverse HCT reaction; details: 500 µM CoA, 100 mM sodium phosphate pH 7.5, 500 µM DTT; kcat apparent; substrate tested 20 to 400 µM
T2 construct: gene HCT1
Source text: HPLC product assay, reverse HCT reaction on MtHCT1

[3] = system: T2, MtHCT1; experiment: HPLC product assay, forward HCT reaction; details: 500 µM shikimic acid, 100 mM sodium phosphate pH 7.5, 500 µM DTT; kcat apparent
Source text: HPLC product assay, forward HCT reaction on MtHCT1

[4] = system: T1, MtHCT2; experiment: HPLC product assay, forward HCT reaction; details: 500 µM shikimic acid, 100 mM sodium phosphate pH 7.5, 500 µM DTT; kcat apparent
Source text: HPLC product assay, forward HCT reaction on MtHCT2

Km [1] [µM]	Km [2] [µM]	Km [3] [µM]	Km [4] [µM]	Compound
139	148			O=C(/C=C/c1ccc(O)c(O)c1)O[C@@H]1CC(C(=O)O)=C[C@@H](O)[C@H]1O [caffeoyl shikimate]
		40.6	44.3	CC(C)(COP(=O)(O)OP(=O)(O)OC[C@H]1O[C@@H](n2cnc3c(N)ncnc32)[C@H](O)[C@@H]1OP(=O)(O)O)[C@@H](O)C(=O)NCCC(=O)NCCSC(=O)/C=C/c1ccc(O)cc1 [4-coumaroyl CoA]

Source: PMC7913460, “Targeting hydroxycinnamoyl CoA: shikimate hydroxycinnamoyl transferase for lignin modification in Brachypodium distachyon” (Biotechnology for Biofuels, 2021)
